One compound from patent publication US9028856B2, “Synergistic pesticide compositions” (priority 2008, dated 2015) can be followed below.

What all share (assay type): in vivo
For one data set, the system named is Aedes aegypti mosquito. As to the kind of experiment: USDA Petri Dish Method, 3 min exposure to treated glazed tile. The conditions noted are these: ethiprole 0.01% AI with or without adjuvant. In outline: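 Resmethrin or clothianidin in acetone, with or without adjuvant, applied to glazed tile and dried overnight; twenty 4-6 day old female mosquitoes exposed 3 minutes, then moved to clean index card. Knockdown scored at intervals over hours; mortality at 24 hours with sucrose provided; at least three replicates.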

The test system of data set [1] is Odorous House ant, Tapinoma sessile. Kind of data set: Knockdown/mortality of ant workers under continuous exposure on treated glazed tile. To be noted: ethiprole 0.01% in the absence of the adjuvant (FIG. 53). In outline: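 Treatments applied to about 161 cm2 glazed tile and dried overnight, with at least three replicates.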
The subject of data set [2] is Red Imported Fire ant (RIFA), Solenopsis invicta. Described as above. To be noted: ethiprole 0.01% in the absence of the adjuvant (FIG. 54). The source says: Treatments were allowed to dry overnight. […] Treatments were replicated minimum three times.
Treatments were allowed to dry overnight. […] Treatments were replicated a minimum of three times.

Data set [3] has as its system Blattella germanica (males, susceptible). As to the kind of experiment: Efficacy of EC formulations on glazed/unglazed tiles, continuous exposure. The conditions noted are these: 0.02% = 10 mg Ethiprole/m^2 on glazed tiles, EC formulation. How it is done: All surfaces were provided with talcum-coated glass rings (diameter 9.5 cm, height 5.5 cm) one day later.
The test insects were anesthetized with CO2, 20 individuals were placed onto the treated surfaces and the glass ring was covered with wire gauze ring. […]
Each test consisted of at least one replicate and any additional replicates are noted. […]
Test Insects: Culex quinquefasciatus (adults, susceptible) (3 minutes exposure time according to USDA Petri Dish Method), Musca domestica (adults, susceptible and resistant), Blattella germanica (males, susceptible) (both: continuous exposure time)
Formulations: Insecticide with or without 10% Compound A (as EC), to be diluted with water (1 part formulation+9 parts water)
Application: 1 ml of the diluted formulations was applied by pipette onto glazed tiles (15×15 cm)
(§1) Evaluation: Knock down after 3, 9 (mosquitoes only), 15, and 30 minutes, 1, 2, 3, 4 and 24 hours (mortality)

The test system of data set [4] is Cimex lectularius (adults). As to the kind of experiment: Efficacy on glazed tiles (acetone solutions or EC formulations), continuous exposure. The conditions noted are these: Cimex lectularius, on tiles, insecticide alone (imidacloprid 50 mg/m^2, Bendiocarb 50 mg/m^2, Ethiprole 10 mg/m^2, DTM 1 mg/m^2), no Compound A, read-out: % KD and Mortality. How it is done: Test Insects: Culex quinquefasciatus (adults) (3 minutes exposure time according to USDA Petri Dish Method), Musca domestica (adults), susceptible and resistant strain, Blattella germanica (males), Cimex lectularius (adults) (all: continuous exposure time)
Application: The EC formulation (diluted with water 1:9) were applied as 0.85 ml solutions onto glazed tiles (15 cm×15 cm)
Evaluation: Knock down after 15, and 30 minutes, 1, 2, 3, 4, 6 and 24 hours (mortality)
Test Insects: Culex quinquefasciatus (adults) (3 minutes exposure time according to USDA Petri Dish Method), Cimex lectularius (adults), Acheta domesticus (middle nymphs) (both: continuous exposure time)
Application: The active ingredients were applied as 1 ml acetone solutions onto glazed tiles (15 cm×15 cm)
as §1
Test Insects: Culex quinquefasciatus (adults) (3 minutes exposure time according to USDA Petri Dish Method), Cimex lectularius (adults), (continuous exposure time)
Test Insects: Cimex lectularius, Culex quinquefasciatus, Musca domestica (all adults, susceptible strains)
Application: The active ingredients were applied as 1 ml acetone solutions onto glazed tiles (15 cm×15 cm), continuous exposure time

SMILES strings stand for the structures. Where two headings read alike, the source gives them in different places.

`CC[S+]([O-])c1c(C#N)nn(-c2c(Cl)cc(C(F)(F)F)cc2Cl)c1N` (stereo not drawn) [ethiprole]: the “mortality rate (peak / increased over time), FIG. 50” value in the data set on Aedes aegypti mosquito is given as 15-18%. Besides, in data set [1], the “mortality in 2 hours” value is “around 4%”. In data set [2], the “mortality in 3 hours” value is below 5%. In addition, in data set [3], the “% KD and Mortality 15′” value came to 0%; the “% KD and Mortality 30′” value is 0%; the “% KD and Mortality 1 h” value is 0%; the “% KD and Mortality 2 h” value was 80%. Moreover, in data set [3], the “% KD and Mortality 3 h” value is on record as 100%; the “% KD and Mortality 4 h” value came to 100%; the “% KD and Mortality 6 h” value came to 100%; the “% KD and Mortality 24 h” value was found to be 100%. For the same compound, in data set [4] (15′), the mortality (in general, the percentage killed) at 10 mg/m2 is 0%. In addition, the mortality at 10 mg/m2 in data set [4] (1 h) was found to be 0%. The mortality at 10 mg/m2 in data set [4] (2 h) was determined as 10%. For the same compound, in data set [4] (3 h), the mortality at 10 mg/m2 amounted to 10%. The mortality at 10 mg/m2 in data set [4] (4 h) stood at 10%. Moreover, in data set [4] (6 h), the mortality at 10 mg/m2 came out at 70%. Further, in data set [4] (24 h), the mortality at 10 mg/m2 was determined as 100%.
